These results are taken from patent EP4803087A1, “METHOD FOR PRODUCING LIPOSOME COMPOSITION, AND LIPOSOME COMPOSITION” (FUJIFILM Corporation, priority 2023, dated 2025).

Each structure is given as a SMILES string. Counter-ions that a name gives are not always drawn.

A short description of data set [1]: Measurement of saturated solubility of gemcitabine hydrochloride (HPLC, 272 nm). As to conditions: 55 °C, aqueous buffer, thermodynamic from solid, phosphate buffer and water. The format is physicochemical. Here is the method:
0.95 g of disodium hydrogen phosphate dihydrate, 0.15 g of sodium dihydrogen phosphate dihydrate, and 51.1 g of water were put into a 100 mL plastic container and dissolved to produce a buffer containing no sodium chloride.
3.4 g of gemcitabine hydrochloride was put into 5.8 g of this buffer and 8.1 g of water, and the mixture was stirred at 55°C for 2 hours. 5 mL of this supernatant was collected, and the filtrate obtained by filtration was used as a sample solution.
0.95 g of disodium hydrogen phosphate dihydrate, 0.15 g of sodium dihydrogen phosphate dihydrate, 5.4 g of sodium chloride, and 67.7 g of water were put into a 100 mL plastic container and dissolved to produce a buffer containing sodium chloride.
3.4 g of gemcitabine hydrochloride was put into 7.4 g of this buffer and 8.1 g of water, and the mixture was stirred at 55°C for 2 hours. 5 mL of this supernatant was collected, and the filtrate obtained by filtration was used as a sample solution.
This sample solution was quantified by HPLC at a detection wavelength of 272 nm, and the saturated solubility of 90 mg/mL in the presence of sodium chloride was obtained.

The nature of data set [2]: Dissolution of gemcitabine hydrochloride in the loading tank at production scale (visual confirmation). As to conditions: jacket 56°C. More on the design: time after which complete dissolution could not be confirmed: dose or concentration left out as unconfirmed. The format is physicochemical. Here is the method:
In order to prevent the powder of gemcitabine hydrochloride having high pharmacological activity from being exposed to the operator, the following work was performed in an isolator that could completely isolate the work from the outside. […] In this case, the extension tube was closed by a pinch valve. 1,452 g of water for injection at room temperature was put into the plastic bag to wash the burette, and gemcitabine hydrochloride was dispersed. A tube extended from a sealed tank (hereinafter, a loading tank) made of SUS316L with a temperature control jacket installed outside the isolator and the plastic bag was connected, and the gemcitabine hydrochloride aqueous dispersion liquid was put into the loading tank. A solution consisting of 17.0 g of disodium hydrogen phosphate dihydrate, 2.7 g of sodium dihydrogen phosphate dihydrate, and 1,106.6 g of water for injection was put into the loading tank from the plastic bag to wash out the gemcitabine hydrochloride remaining in the plastic bag, the extension tube, and the like. By cutting the extension tube while pinching and crimping the extension tube, the gemcitabine hydrochloride of the highly pharmaceutically active substance could be safely put into the loading tank without scattering from the isolator or the loading tank. […]

With `Nc1ccn([C@@H]2O[C@H](CO)[C@@H](O)C2(F)F)c(=O)n1` [gemcitabine hydrochloride, Gemcitabine hydrochloride], the solubility at 2 h is 156 mg/mL in data set [1] (in the absence of sodium chloride, stirred at 55°C for 2 hours (imitating Example 1)) and 90 mg/mL in data set [1] (in the presence of sodium chloride, stirred at 55°C for 2 hours (imitating Comparative Example 1)). In data set [2] (Comparative Example 1: sodium chloride present, 200 rpm, downward flow, sodium hydroxide added), the “time after which complete dissolution could not be confirmed” value was > 1 h. Besides, in data set [2] (Example 1: no sodium chloride, 305 g scale, liquid 54°C, 400 rpm, upward flow), the “time after the temperature rise until gemcitabine hydrochloride was completely dissolved” value was “about 15 minutes”.

For orientation: solubility means how much of the substance goes into solution per volume.
